From article PMC11013662, “New Thiosemicarbazide Derivatives with Multidirectional Biological Action” (Molecules, 2024)
Values after ≈ are worked out from the molar mass of the structure shown.

How the values were obtained:
[1] = tested on: Staphylococcus spp. strains; assay: Broth microdilution MIC / MBC, staphylococci; format: cell-based
Procedure: (§1) The microdilution method was used to determine the MIC values of newly synthesized compounds. The antimicrobial activity of the thiosemicarbazides series was tested on ten reference bacterial strains purchased from the American Type Culture Collection (ATCC). Seven Gram-positive reference strains (S. aureus ATCC 29213, S. aureus ATCC 43300, S. aureus ATCC 6538, S. aureus ATCC 25923, S. epidermidis ATCC 12228, M. luteus ATCC 10240, and B. cereus ATCC 10876) and three Gram-negative reference bacteria (K. pneumoniae ATCC 13883, E. coli ATCC 25922, S. typhimurium ATCC 14028) were used. […]
(§2) A 96-well microtiter plate and microbroth two-fold dilution method was used to determine the minimum inhibitory concentration (MIC) according to the EUCAST (European Committee on Antimicrobial Susceptibility Testing) reference recommendation. […] After incubation, the growth of bacteria was monitored by a Biotek ELx800 (Biokom, Janki, Poland) spectrophotometer at 600 nm (OD600). […]
(§3) The in vitro antimicrobial activity of the tested compounds was determined by the MIC, which was defined as the lowest concentration of the compound tested at which no visible growth of the test bacteria was observed. […] MBC was determined after the broth dilution period of an MIC test has been completed. […] The MBC values were determined by observing the first clear area on the agar plate that has no observable bacterial growth.

[2] = tested on: S. aureus reference strains; assay: Broth microdilution MIC / MBC, summary over S. aureus strains; format: cell-based, Staphylococcus aureus
Procedure: as §1, §2, §3

[3] = tested on: Gram-positive bacteria; assay: Broth microdilution MIC / MBC, summary over Gram-positive strains; format: cell-based
Procedure: as §1, §2, §3

Compound	MBC/MIC ratio ([1]; against staphylococci, bacteriostatic)	MIC ([1]; all Staphylococcus spp. strains except MRSA ATCC 43300)	MBC ([2]; Staphylococcus aureus, all tested S. aureus reference strains)	MBC [3]	MIC range [3]	MIC range ([2]; S. aureus ATCC 43300 MRSA and all MSSA reference strains)
O=C(NNC(=S)Nc1cccc(Cl)c1)c1cccc(C(F)(F)F)c1 [Compound 3a, 4-(3-Chlorophenyl)-1-(3-trifluoromethylbenzoyl)thiosemicarbazide]	> 4	1.95 µg/mL (≈ 5.22 µM)	1000 µg/mL (≈ 2680 µM)			
O=C(NNC(=S)Nc1cccc(F)c1)c1cccc(C(F)(F)F)c1 [Compound 3e, 1-(3-Trifluoromethylbenzoyl)-4-(3-fluorophenyl)thiosemicarbazide]				> 1000 µg/mL	7.8 to 31.25 µg/mL	15.63 to 31.25 µg/mL
